Data as given in US10961231B2, “NTCP inhibitors” (National Institute of Biological Sciences, Beijing, priority 2018, dated 2021).
Like-named read-outs stand apart in the source and are kept apart here.

Biological target: T1, NTCP (Homo sapiens, UniProt Q14973)
T1 sequence (Q14973 1-349): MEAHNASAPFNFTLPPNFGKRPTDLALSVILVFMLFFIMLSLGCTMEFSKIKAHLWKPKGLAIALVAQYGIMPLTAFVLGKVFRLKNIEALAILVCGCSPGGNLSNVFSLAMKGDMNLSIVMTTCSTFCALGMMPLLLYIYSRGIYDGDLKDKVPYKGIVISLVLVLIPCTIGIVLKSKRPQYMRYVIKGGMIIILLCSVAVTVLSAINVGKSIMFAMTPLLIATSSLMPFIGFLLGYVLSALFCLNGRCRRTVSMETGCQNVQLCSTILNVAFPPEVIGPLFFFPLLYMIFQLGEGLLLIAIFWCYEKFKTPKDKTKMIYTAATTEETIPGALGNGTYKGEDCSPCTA
Experiment: [3H]-TCA uptake assay (NTCP inhibition)
Type: cell-based
Summary of the method: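 Read-out is liquid scintillation counting of Triton X-100 lysates after 15 min, 37° C uptake of 1 μM [3H]-taurocholate in Na+ Ringer's buffer (145 mM Na). Beforehand, PTH and HepG2-NTCP cells had 24 h in PMM for NTCP induction and 2 h of compound or DMSO treatment.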

[1] = given as a range, assay not given
[2] = IC50, given as a range, marked * (asterisk not explained)
[3] = given as a range, marked * (asterisk not explained)

SMILES	IC50 [1] [nM]	also measured
CCC1NC(=O)C(C2OC(OCc3cc(Cl)ccc3Cl)CC2C)N(C)C(=O)C(C(C)C)N(C)C(=O)C(CC(C)C)N(C)C(=O)C(CC(C)C)N(C)C(=O)C(C)NC(=O)C(C)NC(=O)C(CC(C)C)N(C)C(=O)C(C(C)C)NC(=O)C(CC(C)C)N(C)C(=O)CN(C)C1=O [98A + B(1:1), [2-((2R,3R)-5-(2,5-dichlorobenzyloxy)-3-methyltetrahydrofuran-2-yl)-2-(methylamino)acetic acid]^1-cyclosporin A]	1 to 1000	
CCC1NC(=O)C(C2OC(SCc3cccc(N4CCOCC4)c3)CC2C)N(C)C(=O)C(C(C)C)N(C)C(=O)C(CC(C)C)N(C)C(=O)C(CC(C)C)N(C)C(=O)C(C)NC(=O)C(C)NC(=O)C(CC(C)C)N(C)C(=O)C(C(C)C)NC(=O)C(CC(C)C)N(C)C(=O)CN(C)C1=O (stereo not shown) [Compound 95-s]		IC50 [2]: 1000 to 100000 nM
CCC1NC(=O)C(C2OC(Sc3cccc(OC(C)C)c3)CC2C)N(C)C(=O)C(C(C)C)N(C)C(=O)C(CC(C)C)N(C)C(=O)C(CC(C)C)N(C)C(=O)C(C)NC(=O)C(C)NC(=O)C(CC(C)C)N(C)C(=O)C(C(C)C)NC(=O)C(CC(C)C)N(C)C(=O)CN(C)C1=O [Compound 30A, [2-((2R,3R)-5-(3-isopropoxyphenylthio)-3-methyltetrahydrofuran-2-yl)-2-(methylamino)acetic acid]^1-cyclosporin]	1 to 1000	
CCC1NC(=O)C(C2OC(SCc3cc(Cl)cc(Cl)c3)CC2C)N(C)C(=O)C(C(C)C)N(C)C(=O)C(CC(C)C)N(C)C(=O)C(CC(C)C)N(C)C(=O)C(C)NC(=O)C(C)NC(=O)C(CC(C)C)N(C)C(=O)C(C(C)C)NC(=O)C(CC(C)C)N(C)C(=O)CN(C)C1=O [Compound 91A-s, [2-((2R,3R)-5-(3,5-dichlorobenzylthio)-3-methyltetrahydrofuran-2-yl)-2-(methylamino)acetic acid]^1-cyclosporin A]	1 to 1000	
CCC1NC(=O)C(C2OC(Oc3cccc(OCc4ccc(CN(C)C)cc4)c3)CC2C)N(C)C(=O)C(C(C)C)N(C)C(=O)C(CC(C)C)N(C)C(=O)C(CC(C)C)N(C)C(=O)C(C)NC(=O)C(C)NC(=O)C(CC(C)C)N(C)C(=O)C(C(C)C)NC(=O)C(CC(C)C)N(C)C(=O)CN(C)C1=O (stereo not shown) [Compound 13A-o]		IC50 [3]: 1000 to 100000 nM
CCC1NC(=O)C(C2OC(OCc3cc(Cl)cc(Cl)c3)CC2C)N(C)C(=O)C(C(C)C)N(C)C(=O)C(CC(C)C)N(C)C(=O)C(CC(C)C)N(C)C(=O)C(C)NC(=O)C(C)NC(=O)C(CC(C)C)N(C)C(=O)C(C(C)C)NC(=O)C(CC(C)C)N(C)C(=O)CN(C)C1=O [Compound 91B, [2-((2R,3R)-5-(3,5-dichlorobenzyloxy)-3-methyltetrahydrofuran-2-yl)-2-(methylamino)acetic acid]^1-cyclosporin A]	1 to 1000	
CCC1NC(=O)C(C2OC(OC(C)c3ccccc3)CC2C)N(C)C(=O)C(C(C)C)N(C)C(=O)C(CC(C)C)N(C)C(=O)C(CC(C)C)N(C)C(=O)C(C)NC(=O)C(C)NC(=O)C(CC(C)C)N(C)C(=O)C(C(C)C)NC(=O)C(CC(C)C)N(C)C(=O)CN(C)C1=O (single isomer, unassigned) [Compound 79A]	1 to 1000	
CCC1NC(=O)C(C2OC(Oc3cc(Cl)cc(OCC4CCN(C)CC4)c3)CC2C)N(C)C(=O)C(C(C)C)N(C)C(=O)C(CC(C)C)N(C)C(=O)C(CC(C)C)N(C)C(=O)C(C)NC(=O)C(C)NC(=O)C(CC(C)C)N(C)C(=O)C(C(C)C)NC(=O)C(CC(C)C)N(C)C(=O)CN(C)C1=O (stereo not shown) [Compound 71-o]		IC50 [3]: 1000 to 100000 nM
CCOc1ccc(OC2CC(C)C(C3C(=O)NC(CC)C(=O)N(C)CC(=O)N(C)C(CC(C)C)C(=O)NC(C(C)C)C(=O)N(C)C(CC(C)C)C(=O)NC(C)C(=O)NC(C)C(=O)N(C)C(CC(C)C)C(=O)N(C)C(CC(C)C)C(=O)N(C)C(C(C)C)C(=O)N3C)O2)cc1 (stereo not shown) [Compound 27A-o]		IC50 [2]: 1000 to 100000 nM
CCC1NC(=O)C(C2OC(OCc3ccc4c(c3)OCO4)CC2C)N(C)C(=O)C(C(C)C)N(C)C(=O)C(CC(C)C)N(C)C(=O)C(CC(C)C)N(C)C(=O)C(C)NC(=O)C(C)NC(=O)C(CC(C)C)N(C)C(=O)C(C(C)C)NC(=O)C(CC(C)C)N(C)C(=O)CN(C)C1=O [Compound 100A, [2-((2R,3R)-5-(benzo[d][1,3]dioxol-5-ylmethoxy)-3-methyltetrahydrofuran-2-yl)-2-(methylamino)acetic acid]^1-cyclosporin A]	1 to 1000	
CCC1NC(=O)C(C2OC(SCc3ccccc3)CC2C)N(C)C(=O)C(C(C)C)N(C)C(=O)C(CC(C)C)N(C)C(=O)C(CC(C)C)N(C)C(=O)C(C)NC(=O)C(C)NC(=O)C(CC(C)C)N(C)C(=O)C(C(C)C)NC(=O)C(CC(C)C)N(C)C(=O)CN(C)C1=O (stereo not shown) [Compound 74A-s]		IC50 [2]: 1000 to 100000 nM
CCC1NC(=O)C(C2OC(Sc3ccc(SCCCS(=O)(=O)O)cc3)CC2C)N(C)C(=O)C(C(C)C)N(C)C(=O)C(CC(C)C)N(C)C(=O)C(CC(C)C)N(C)C(=O)C(C)NC(=O)C(C)NC(=O)C(CC(C)C)N(C)C(=O)C(C(C)C)NC(=O)C(CC(C)C)N(C)C(=O)CN(C)C1=O [Compound 10A, [2-((2R,3R)-3-methyl-5-(4-(3-sulfopropylthio)phenylthio)tetrahydrofuran-2-yl)-2-(methylamino)acetic acid]^1-cyclosporin A]	1000 to 1e+06	
CCC1NC(=O)C(C2OC(Oc3cccc(OCc4ccc5c(c4)OCO5)c3)CC2C)N(C)C(=O)C(C(C)C)N(C)C(=O)C(CC(C)C)N(C)C(=O)C(CC(C)C)N(C)C(=O)C(C)NC(=O)C(C)NC(=O)C(CC(C)C)N(C)C(=O)C(C(C)C)NC(=O)C(CC(C)C)N(C)C(=O)CN(C)C1=O (stereo not shown) [Compound 18A-o]		IC50 [3]: 1000 to 100000 nM
CCC1NC(=O)C(C2OC(Sc3ccc(OC)c(OC)c3)CC2C)N(C)C(=O)C(C(C)C)N(C)C(=O)C(CC(C)C)N(C)C(=O)C(CC(C)C)N(C)C(=O)C(C)NC(=O)C(C)NC(=O)C(CC(C)C)N(C)C(=O)C(C(C)C)NC(=O)C(CC(C)C)N(C)C(=O)CN(C)C1=O [Compound 37A, [2-((2R,3R)-5-(3,4-dimethoxyphenylthio)-3-methyltetrahydrofuran-2-yl)-2-(methylamino)acetic acid]^1-cyclosporin A]	1 to 1000	
CCC1NC(=O)C(C2OC(Sc3ccc(OCc4ccccc4)cc3)CC2C)N(C)C(=O)C(C(C)C)N(C)C(=O)C(CC(C)C)N(C)C(=O)C(CC(C)C)N(C)C(=O)C(C)NC(=O)C(C)NC(=O)C(CC(C)C)N(C)C(=O)C(C(C)C)NC(=O)C(CC(C)C)N(C)C(=O)CN(C)C1=O [Compound 57A, [2-((2R,3R)-5-(4-(benzyloxy)phenylthio)-3-methyltetrahydrofuran-2-yl)-2-(methylamino)acetic acid]^1-cyclosporin A]	1 to 1000	
CCC1NC(=O)C(C2OC(Oc3cccc(NCc4ccccc4)c3)CC2C)N(C)C(=O)C(C(C)C)N(C)C(=O)C(CC(C)C)N(C)C(=O)C(CC(C)C)N(C)C(=O)C(C)NC(=O)C(C)NC(=O)C(CC(C)C)N(C)C(=O)C(C(C)C)NC(=O)C(CC(C)C)N(C)C(=O)CN(C)C1=O (stereo not shown) [Compound 48A-o]		IC50 [2]: 1000 to 100000 nM
CCC1NC(=O)C(C2OC(Sc3cccc(OCCN(C)C)c3)CC2C)N(C)C(=O)C(C(C)C)N(C)C(=O)C(CC(C)C)N(C)C(=O)C(CC(C)C)N(C)C(=O)C(C)NC(=O)C(C)NC(=O)C(CC(C)C)N(C)C(=O)C(C(C)C)NC(=O)C(CC(C)C)N(C)C(=O)CN(C)C1=O [Compound 14A, [2-((2R,3R)-5-(3-(2-(dimethylamino)ethoxy)phenylthio)-3-methyltetrahydrofuran-2-yl)-2-(methylamino)acetic acid]^1-cyclosporin A]		IC50 [2]: 1000 to 100000 nM
CCC1NC(=O)C(C2OC(Oc3cccc(OCc4ccn(C)c(=O)c4)c3)CC2C)N(C)C(=O)C(C(C)C)N(C)C(=O)C(CC(C)C)N(C)C(=O)C(CC(C)C)N(C)C(=O)C(C)NC(=O)C(C)NC(=O)C(CC(C)C)N(C)C(=O)C(C(C)C)NC(=O)C(CC(C)C)N(C)C(=O)CN(C)C1=O (stereo not shown) [Compound 16A-o]		IC50 [3]: 1000 to 100000 nM
CC[C@@H]1NC(=O)[C@H]([C@@H]2OC(OCc3cccc(Cl)c3)C[C@H]2C)N(C)C(=O)[C@H](C(C)C)N(C)C(=O)[C@H](CC(C)C)N(C)C(=O)[C@H](CC(C)C)N(C)C(=O)[C@@H](C)NC(=O)[C@H](C)NC(=O)[C@H](CC(C)C)N(C)C(=O)[C@H](C(C)C)NC(=O)[C@H](CC(C)C)N(C)C(=O)CN(C)C1=O (stereo partly drawn) [Compound 85A, [2-((2R,3R)-5-(3-chlorobenzyloxy)-3-methyltetrahydrofuran-2-yl)-2-(methylamino)acetic acid]^1-cyclosporin A]		IC50 (given as a range, assay not given, read-out: IC50): 1 to 1000 nM
CCC1NC(=O)C(C2OC(Sc3cccc(O)c3)CC2C)N(C)C(=O)C(C(C)C)N(C)C(=O)C(CC(C)C)N(C)C(=O)C(CC(C)C)N(C)C(=O)C(C)NC(=O)C(C)NC(=O)C(CC(C)C)N(C)C(=O)C(C(C)C)NC(=O)C(CC(C)C)N(C)C(=O)CN(C)C1=O [Compound 25A, [2-((2R,3R)-5-(3-hydroxyphenylthio)-3-methyltetrahydrofuran-2-yl)-2-(methylamino)acetic acid]^1-cyclosporine A]	1 to 1000	
CCC1NC(=O)C(C2OC(OCc3ccccc3OC)CC2C)N(C)C(=O)C(C(C)C)N(C)C(=O)C(CC(C)C)N(C)C(=O)C(CC(C)C)N(C)C(=O)C(C)NC(=O)C(C)NC(=O)C(CC(C)C)N(C)C(=O)C(C(C)C)NC(=O)C(CC(C)C)N(C)C(=O)CN(C)C1=O (single isomer, unassigned) [Compound 82A]	1 to 1000	
CCC1NC(=O)C(C2OC(Oc3ccc(Cl)c(OC)c3)CC2C)N(C)C(=O)C(C(C)C)N(C)C(=O)C(CC(C)C)N(C)C(=O)C(CC(C)C)N(C)C(=O)C(C)NC(=O)C(C)NC(=O)C(CC(C)C)N(C)C(=O)C(C(C)C)NC(=O)C(CC(C)C)N(C)C(=O)CN(C)C1=O (stereo not shown) [Compound 40A-o]		IC50 [2]: 1000 to 100000 nM
